Data on one molecule can be found in US8614021B2, “Agents for enhanced charge transport across microbial membranes” (The United States of America as represented by the …, priority 2010, dated 2013).

Like-named read-outs stand apart in the source and are kept apart here.

Series [1] in a line: UV-Vis absorption and photoluminescence (PL) spectroscopy in solvents of varying polarity. To be noted: for η (quantum efficiency): relative to a fluorescein standard at pH 12.
From the text: General photophysical and solvatochromatic features of the neutral (DSSN, DSBN) and charged (DSSN+, DSBN+) versions of each chromophore were probed by using UV-Vis absorption and photoluminescence (PL) spectroscopies.
The conditions of series [2]: DMSO; value abstracted from reference (Woo et al. JACS 2005); cited from earlier work.

As for `ICCCCCCN(CCCCCCI)c1ccc(C=Cc2ccc(C=Cc3ccc(N(CCCCCCI)CCCCCCI)cc3)cc2)cc1` [DSBN, 1,4-bis(4′-(N,N-bis(6″-iodohexyl)amino)styryl)benzene], the λabs in series [1] (DMSO) is 419 nm; in series [1] (THF) it was 410 nm; in series [1] (toluene) it was 410 nm. Further, the λem in series [1] (DMSO) stood at 516 nm; in series [1] (THF), 466 nm; in series [1] (toluene) it was 454 nm. For the same molecule, the “η (quantum efficiency)” value came out at 0.81 in series [1] (DMSO), 0.92 in series [1] (THF) and 0.98 in series [1] (toluene). In addition, the “εmax (molar extinction coefficient at λmax)” value in series [1] (THF) was 8.5 Lmol^−1cm^−1 × 10^−4; in series [1] (toluene), 8.4 Lmol^−1cm^−1 × 10^−4; in series [2], 7.8 Lmol^−1cm^−1 × 10^−4.
